The record followed here is patent publication US10077241B2 (Janssen Pharmaceutica NV, priority 2014, dated 2018).

Assay [1] deals with T1, TGR5 (NCI-H716 cell line) (Homo sapiens, UniProt Q8TDU6).
T1 sequence (Q8TDU6 1-330): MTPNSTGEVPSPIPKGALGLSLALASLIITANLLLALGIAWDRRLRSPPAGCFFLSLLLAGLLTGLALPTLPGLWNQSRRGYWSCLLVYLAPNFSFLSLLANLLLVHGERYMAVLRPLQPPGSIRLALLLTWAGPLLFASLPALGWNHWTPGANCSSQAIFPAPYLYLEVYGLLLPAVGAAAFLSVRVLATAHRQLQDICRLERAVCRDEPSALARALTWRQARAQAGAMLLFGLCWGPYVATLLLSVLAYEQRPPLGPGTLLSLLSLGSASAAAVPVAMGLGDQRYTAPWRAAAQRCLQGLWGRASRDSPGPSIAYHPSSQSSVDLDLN
As to the kind of experiment: NCI-H716 cAMP Agonist EC50 Determination.
Method: Cells were cultured in suspension using RPM containing: 10% HI FBS, and 1× Penn/Strep and were cryostored (1E7 cells/vial in 5% DMSO).
A Normalized signal (NS) is generated by the Envision for each well ((Read 1/Read 2)×10,000).
The data from the Envision were imported to an Excel worksheet. nM cAMP is calculated for each well from the cAMP standard curves located on each plate by first calculating the slope and deriving the intercept (b).
[formula] [formula] [formula] EC50 values were determined from a 4-point fit (Hill equation) of a single 11-point compound dosing.

The next assay addresses T2, TGR5 (STC1 cell line) (Mus musculus, UniProt Q80SS6).
T2 sequence (Q80SS6 1-329): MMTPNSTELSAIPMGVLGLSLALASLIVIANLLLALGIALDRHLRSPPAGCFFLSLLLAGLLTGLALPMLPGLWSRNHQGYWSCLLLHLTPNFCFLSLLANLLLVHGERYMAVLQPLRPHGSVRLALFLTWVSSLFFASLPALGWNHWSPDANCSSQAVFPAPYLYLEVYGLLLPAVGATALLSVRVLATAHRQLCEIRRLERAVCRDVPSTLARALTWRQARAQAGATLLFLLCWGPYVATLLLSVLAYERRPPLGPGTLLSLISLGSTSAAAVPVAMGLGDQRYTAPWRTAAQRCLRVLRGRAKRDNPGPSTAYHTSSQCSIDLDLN
As to the kind of experiment: STC1 cAMP Agonist EC50 Determination.

Where a name gives a salt, the structure may show the parent alone. Where only a bound is given, the exact number is not on record here.

Method for TGR5 (STC1 cell line): Cell stocks were maintained and grown in a sub-confluent state using standard cell culture procedures. The day before the experiment, the cells were harvested with non-enzymatic cell dissociation buffer and resuspended in complete growth media at 4E5 c/ml. […] The seeded plates were incubated overnight at 37° C.
On the day of the experiment, Assay Buffer containing: HBSS with Ca^2+and Mg^2+; 5 μM HEPES; 0.1% BSA; and, 0.5 μM IBMX was prepared. The growth medium was washed from the cell plates and replaced with 20 μL of Assay Buffer. […] The reaction was stopped by the addition of 20 μL 0.1% Formic Acid to all wells. Sixty minutes later 30 μL 3 M deuterated AMP was added to all wells (as a control for volume addition to the mass spec). Plates were mixed on a plate shaker for 1 min and centrifugated (5 min 3000 RPMs no brakes).
Plates were run on a 4000 QTrap triple-quadrapole Mass spectrometer in positive ion mode coupled with a Biocius RapidFire 300is. […] Two ions (cAMP and deuterated AMP were measured using Multiple Reaction Monitoring (MRM) in positive ion mode and the area under the curve (AUC) was determined for each of the ions.
The data from the Mass Spec/Rapid Plate AUC for cAMP and deuterated AMP were imported to an Excel worksheet. A Normalized signal (NS) was generated for each well=(cAMP AUC for the well/deut AMP AUC for the well)*average deut AMP AUC for the plate). nM cAMP was calculated for each well from the cAMP standard curves located on each plate by first calculating the slope and deriving the intercept (b).
EC50 values were determined from a 4-point fit (Hill equation) of a single 11-point compound dosing.

The term EC50 denotes the concentration that produces a half-maximal response. A higher EC50 goes with a less potent agent. As to `COc1cc(C2CCCc3nc(SCc4c(F)cccc4Cl)n(-c4ccc(F)c(F)c4F)c32)ccc1Cl` (centres unmarked) [Example 9, 7-(4-chloro-3-methoxyphenyl)-2-((2-chloro-6-fluorobenzyl)thio)-1-(2,3,4-trifluorophenyl)-4,5,6,7-tetrahydro-1H-benzo[d]imidazole], the values for the 50% effective concentration (EC50) (in assay [1]; on TGR5 (STC1 cell line)) were greater than 50 µM and 9.86 µM, respectively.
The like results for `COc1cc(C2CCCc3nc(SCc4c(F)cccc4Cl)n(-c4cc(F)c(F)c(F)c4)c32)ccc1Cl` (centres unmarked) [Example 10, 7-(4-chloro-3-methoxyphenyl)-2-((2-chloro-6-fluorobenzyl)thio)-1-(3,4,5-trifluorophenyl)-4,5,6,7-tetrahydro-1H-benzo[d]imidazole] were, in that order, greater than 50 µM and 0.79 µM.
For `COc1cc(C2CCCc3nc(SCc4c(F)cccc4Cl)n(-c4cc(F)c(F)cc4F)c32)ccc1Cl` (centres unmarked) [Example 11, 7-(4-chloro-3-methoxyphenyl)-2-((2-chloro-6-fluorobenzyl)thio)-1-(2,4,5-trifluorophenyl)-4,5,6,7-tetrahydro-1H-benzo[d]imidazole] the same measures were greater than 50 µM and 3.71 µM.
For `COc1cc(C2CCCc3nc(SCc4c(F)cc(C(=O)O)cc4F)n(-c4ccc(F)cc4)c32)ccc1Cl` (centres unmarked) [Example 12, 4-((7-(4-chloro-3-methoxyphenyl)-1-(4-fluorophenyl)-4,5,6,7-tetrahydro-1H-benzo[d]imidazol-2-ylthio)methyl)-3,5-difluorobenzoic acid trifluoroacetic acid] the same measures were greater than 50 µM and 19.7 µM.
Consider `COc1cc(C2CCCc3nc(SCc4c(F)cc(C(=O)NCC[N+](C)(C)C)cc4F)n(-c4ccc(F)cc4)c32)ccc1Cl` (centres unmarked) [Example 13, 2-(4-((7-(4-chloro-3-methoxyphenyl)-1-(4-fluorophenyl)-4,5,6,7-tetrahydro-1H-benzo[d]imidazol-2-ylthio)methyl)-3,5-difluorobenzamido)-N,N,N-trimethylethanaminium 2,2,2-trifluoroacetate], for which the EC50 was greater than 50 µM in assay [1] and 8.04 µM on TGR5 (STC1 cell line).
The like results for `COc1cc(C2CCCc3nc(SCc4c(F)cccc4C#N)n(-c4ccc(F)cc4)c32)ccc1Cl` (centres unmarked) [Example 14, 2-([[7-(4-chloro-3-methoxyphenyl)-1-(4-fluorophenyl)-4,5,6,7-tetrahydro-1H-1,3-benzodiazol-2-yl]sulfanyl]methyl)-3-fluorobenzonitrile] were, in that order, greater than 50 µM and 0.53 µM.
The like results for `COc1cc(C2CCCc3nc(SCc4c(F)cccc4C(F)(F)F)n(-c4ccc(F)cc4)c32)ccc1Cl` (centres unmarked) [Example 15, 7-(4-chloro-3-methoxyphenyl)-2-([[2-fluoro-6-(trifluoromethyl)phenyl]methyl]sulfanyl)-1-(4-fluorophenyl)-4,5,6,7-tetrahydro-1H-1,3-benzodiazole] were, in that order, greater than 50 µM and 13.3 µM.
The like results for `COc1cc(C2CCCc3nc(SCc4c(F)ccc(F)c4Cl)n(-c4ccc(F)cc4)c32)ccc1Cl` (centres unmarked) [Example 20, 2-[[(2-chloro-3,6-difluorophenyl)methyl]sulfanyl]-7-(4-chloro-3-methoxyphenyl)-1-(4-fluorophenyl)-4,5,6,7-tetrahydro-1H-1,3-benzodiazole] were, in that order, greater than 50 µM and 0.51 µM.
On to `COc1cc(C2CCCc3nc(SCc4c(F)cc(S(N)(=O)=O)cc4F)n(-c4ccc(F)cc4)c32)ccc1Cl` (centres unmarked) [Example 21a, 4-((7-(4-chloro-3-methoxyphenyl)-1-(4-fluorophenyl)-4,5,6,7-tetrahydro-1H-benzo[d]imidazol-2-ylthio)methyl)-3,5-difluorobenzenesulfonamide], for which the EC50 in assay [1] was determined as 48.4 µM; on TGR5 (STC1 cell line), 0.69 µM.
With `COc1cc(C2CCCc3nc(SCc4c(F)cc(S(=O)(=O)NS(C)(=O)=O)cc4F)n(-c4ccc(F)cc4)c32)ccc1Cl` (centres unmarked) [Example 21b, 4-((7-(4-chloro-3-methoxyphenyl)-1-(4-fluorophenyl)-4,5,6,7-tetrahydro-1H-benzo[d]imidazol-2-ylthio)methyl)-3,5-difluoro-N-(methylsulfonyl)benzenesulfonamide], the EC50 in assay [1] is greater than 50 µM; on TGR5 (STC1 cell line), 8.12 µM.
As for `COc1cc(C2CCCc3nc(SCc4c(F)cc(S(=O)(=O)NCCC[N+](C)(C)C)cc4F)n(-c4ccc(F)cc4)c32)ccc1Cl` (centres unmarked) [Example 22, 3-(4-((7-(4-chloro-3-methoxyphenyl)-1-(4-fluorophenyl)-4,5,6,7-tetrahydro-1H-benzo[d]imidazol-2-ylthio)methyl)-3,5-difluorophenylsulfonamido)-N,N,N-trimethylpropan-1-aminium 2,2,2-trifluoroacetate], the EC50 in assay [1] is greater than 50 µM; on TGR5 (STC1 cell line), 32.6 µM.
Turning to `COc1cc(C2CCCc3nc(SCc4c(F)cc(OCCOCCOCCOCCO)cc4F)n(-c4ccc(F)cc4)c32)ccc1Cl` (centres unmarked) [Example 23, 1-[4-([[7-(4-chloro-3-methoxyphenyl)-1-(4-fluorophenyl)-4,5,6,7-tetrahydro-1H-1,3-benzodiazol-2-yl]sulfanyl]methyl)-3,5-difluorophenyl]-1,4,7,10-tetraoxadodecan-12-ol], the EC50 in assay [1] is greater than 50 µM; at TGR5 (STC1 cell line), 0.66 µM.
For `COc1cc(C2CCCc3nc(SCc4c(F)cc(OCCN(C)C)cc4F)n(-c4ccc(F)cc4)c32)ccc1Cl` (centres unmarked) [Example 24, 2-(4-((7-(4-chloro-3-methoxyphenyl)-1-(4-fluorophenyl)-4,5,6,7-tetrahydro-1H-benzo[d]imidazol-2-ylthio)methyl)-3,5-difluorophenoxy)-N,N-dimethylethanamine Trifluoromethylacetic acid salt] the same measures were greater than 50 µM and 3.92 µM.
For `COc1cc(C2CCCc3nc(SCc4c(F)cc(OCc5nnn[nH]5)cc4F)n(-c4ccc(F)cc4)c32)ccc1Cl` (centres unmarked) [Example 30, 7-(4-chloro-3-methoxyphenyl)-2-([[2,6-difluoro-4-(1H-1,2,3,4-tetrazol-5-ylmethoxy)phenyl]methyl]sulfanyl)-1-(4-fluorophenyl)-4,5,6,7-tetrahydro-1H-1,3-benzodiazole] the same measures were greater than 50 µM and 0.96 µM.
`COc1cc(C2CCCc3nc(SCc4c(F)ccc(OCCN(C)C)c4F)n(-c4ccc(F)cc4)c32)ccc1Cl` (centres unmarked) [Example 31, [2-[3-([[17-(4-chloro-3-methoxyphenyl)-1-(4-fluorophenyl)-4,5,6,7-tetrahydro-1H-1,3-benzodiazol-2-yl]sulfanyl]methyl)-2,4-difluorophenoxy]ethyl]dimethylamine]: the EC50 came out at 4.44 µM in assay [1] and 4.1 µM at TGR5 (STC1 cell line).
The like results for `COc1cc(C2CCCc3nc(SCc4c(F)ccc(OCCOCCOCCN(C)C)c4F)n(-c4ccc(F)cc4)c32)ccc1Cl` (centres unmarked) [Example 32, 7-(4-chloro-3-methoxyphenyl)-2-([[3-(2-[2-[2-(dimethylamino)ethoxy]ethoxy]ethoxy)-2,6-difluorophenyl]methyl]sulfanyl)-1-(4-fluorophenyl)-4,5,6,7-tetrahydro-1H-1,3-benzodiazole hydrochloride] were, in that order, 16.9 µM and 1.38 µM.
